Reference: ChEMBL document CHEMBL5344418, “Recent developments in antimalarial activities of 4-aminoquinoline derivatives” (Eur J Med Chem, 2023)
pIC50: −log10 of the molar value.

Tests used:
Plasmodium falciparum [1] = assay: Antiplasmodial activity against Plasmodium falciparum 3D7 assessed as growth inhibition measured after 72 hrs by SYBR green dye based assay; format: functional, organism-based; details: 3D7, 72 h
Plasmodium falciparum [2] = assay: Antiplasmodial activity against Plasmodium falciparum K1 assessed as growth inhibition measured after 72 hrs by SYBR green dye based assay; format: functional, organism-based; details: K1, 72 h
Plasmodium falciparum [3] = assay: Antiplasmodial activity against Plasmodium falciparum W2 assessed as reduction in plasmodial growth after 48 hrs by fluorescence based analysis; format: functional, organism-based; details: W2, 48 h
[4] = Cytotoxicity against African green monkey Vero cells assessed as reduction in cell viability incubated for 24 hrs by MTT assay; format: toxicity, cell-based; details: African green monkey (Chlorocebus sabaeus)

Row | SMILES | pIC50 (Plasmodium falciparum [1]) | pIC50 (Plasmodium falciparum [2]) | pIC50 (Plasmodium falciparum [3]) | IC50 at 24 h [4] [nM]
1 | CCN1CCN(CC(CC(C)C)Nc2ccnc3cc(C(F)(F)F)ccc23)CC1 (centres undefined) | 7.61 | 6.10 |  | 
2 | CSCCC(CN1CCN(c2ccccc2)CC1)Nc1ccnc2cc(Cl)ccc12 (centres undefined) | < 5.30 | < 5.30 |  | 
3 | CCN1CCN(CC(Cc2ccccc2)Nc2ccnc3cc(Cl)ccc23)CC1 (centres undefined) | 6.37 | 7.15 |  | 
4 | CCOC(=O)N1CCN(CC(CC(C)C)Nc2ccnc3cc(Cl)ccc23)CC1 (centres undefined) | 6.07 | 6.38 |  | 
5 | Clc1ccc2c(NC(Cc3ccccc3)CN3CCN(Cc4ccc5c(c4)OCO5)CC3)ccnc2c1 (centres undefined) | 6.12 | 7.05 |  | 
6 | Clc1ccc2c(NCCN3CCN(c4ncccn4)CC3)ccnc2c1 | 6.97 | 6.56 |  | 
7 | CCN1CCN(CC(CCSC)Nc2ccnc3cc(Cl)ccc23)CC1 (centres undefined) | 5.58 | < 5.30 |  | 
8 | CCN1CCN(CC(CC(C)C)Nc2ccnc3cc(Cl)ccc23)CC1 (centres undefined) | 7.24 | 7.01 |  | 
9 | Clc1ccc2c(NC(Cc3ccccc3)CN3CCN(c4ccccc4)CC3)ccnc2c1 (centres undefined) | < 6.00 | 5.96 |  | 
10 | CC(CN1CCN(Cc2ccc3c(c2)OCO3)CC1)Nc1ccnc2cc(Cl)ccc12 (centres undefined) | 6.97 | 7.15 |  | 
11 | CC(CN1CCN(Cc2ccccc2)CC1)Nc1ccnc2cc(Cl)ccc12 (centres undefined) | 6.39 | 7.08 |  | 
12 | CC(C)CC(CN1CCN(Cc2ccccc2)CC1)Nc1ccnc2cc(Cl)ccc12 (centres undefined) | 6.81 | < 6.00 |  | 
13 | CCOC(=O)N1CCN(CCNc2ccnc3cc(Cl)ccc23)CC1 | 6.05 | 6.79 |  | 
14 | CC(C)CC(CN1CCN(Cc2ccc3c(c2)OCO3)CC1)Nc1ccnc2cc(C(F)(F)F)ccc12 (centres undefined) | 7.65 | 7.33 |  | 
15 | CC(C)CC(CN1CCN(c2ccccc2)CC1)Nc1ccnc2cc(Cl)ccc12 (centres undefined) | 6.28 | < 6.00 |  | 
16 | CSCCC(CN1CCN(Cc2ccccc2)CC1)Nc1ccnc2cc(Cl)ccc12 (centres undefined) | 5.51 | < 5.30 |  | 

Row | SMILES | pIC50 (Plasmodium falciparum [1]) | pIC50 (Plasmodium falciparum [2]) | pIC50 (Plasmodium falciparum [3]) | IC50 at 24 h [4] [nM]
17 | Clc1ccc2c(NC(CN3CCN(Cc4ccccc4)CC3)n3ccc4ccccc43)ccnc2c1 (centres undefined) | 6.22 | 6.28 |  | 
18 | Clc1ccc2c(NC(Cc3ccccc3)CN3CCN(Cc4ccccc4)CC3)ccnc2c1 (centres undefined) | < 5.30 | < 5.30 |  | 
19 | CC(CN1CCN(c2ccccc2)CC1)Nc1ccnc2cc(Cl)ccc12 (centres undefined) | 6.27 | 6.11 |  | 
20 | O=C(CCN1C(=O)c2ccc(N3CCOCC3)cc2C1=O)NCCCCNc1ccnc2cc(Cl)ccc12 |  |  | 6.66 | 136000
21 | O=C(c1ccco1)N1CCN(CCNc2ccnc3cc(Cl)ccc23)CC1 | 6.00 | 5.37 |  | 
22 | CCN1CCN(CC(C)Nc2ccnc3cc(Cl)ccc23)CC1 (centres undefined) | 6.90 | 6.44 |  | 
23 | CCN1CCN(CC(Nc2ccnc3cc(Cl)ccc23)n2ccc3ccccc32)CC1 (centres undefined) | 5.38 | < 5.30 |  | 
24 | O=C(CCCN1C(=O)c2ccccc2C1=O)NCCNc1ccnc2cc(Cl)ccc12 |  |  | 6.55 | > 229000
25 | O=C(CCN1C(=O)c2ccc(F)cc2C1=O)NCCCCCCNc1ccnc2cc(Cl)ccc12 |  |  | 6.18 | 57200
26 | CC(C)CC(CN1CCN(c2ncccn2)CC1)Nc1ccnc2cc(Cl)ccc12 (centres undefined) | 6.34 | 6.45 |  | 
27 | Clc1ccc2c(NCCN3CCN(Cc4ccc5c(c4)OCO5)CC3)ccnc2c1 | 6.28 | 7.33 |  | 
28 | O=C(CN1C(=O)c2ccc(N3CCOCC3)cc2C1=O)NCCCCCCNc1ccnc2cc(Cl)ccc12 |  |  | 5.75 | 20200
29 | CC(C)CC(CN1CCN(Cc2ccc3c(c2)OCO3)CC1)Nc1ccnc2cc(Cl)ccc12 (centres undefined) | 6.68 | 6.34 |  | 
30 | O=C(CN1C(=O)c2ccc(N3CCOCC3)cc2C1=O)NCCCCNc1ccnc2cc(Cl)ccc12 |  |  | 5.89 | > 192000
31 | CCC(C)C(CN1CCN(CC)CC1)Nc1ccnc2cc(Cl)ccc12 (centres undefined) | 6.94 | 6.30 |  | 
32 | O=C(CCN1C(=O)c2ccc(F)cc2C1=O)NCCCCNc1ccnc2cc(Cl)ccc12 |  |  | 6.66 | 110000
